Assay results as given in PMC10963751, “Solar-driven sugar production directly from CO2 via a customizable electrocatalytic–biocatalytic flow system” (Nature Communications, 2024).

Molecular target: T1, BmfaldDH (Burkholderia multivorans, UniProt A0A0H3KP42)
T1 construct: gene fdhA2; pET28a, E. coli BL21(DE3), Ni-NTA purified (His-tagged)
T1 sequence (A0A0H3KP42 1-398): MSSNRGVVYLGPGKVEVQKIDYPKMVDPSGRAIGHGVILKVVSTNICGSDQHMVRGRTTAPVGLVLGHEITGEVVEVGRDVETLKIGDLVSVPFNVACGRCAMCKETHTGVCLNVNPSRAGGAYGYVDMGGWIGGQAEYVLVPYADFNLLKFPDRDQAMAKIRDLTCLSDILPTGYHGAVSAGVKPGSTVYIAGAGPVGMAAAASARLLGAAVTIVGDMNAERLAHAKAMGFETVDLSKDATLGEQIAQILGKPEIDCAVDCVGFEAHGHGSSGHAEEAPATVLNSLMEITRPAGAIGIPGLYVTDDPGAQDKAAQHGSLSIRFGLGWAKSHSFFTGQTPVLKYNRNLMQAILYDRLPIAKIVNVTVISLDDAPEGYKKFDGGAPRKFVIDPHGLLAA
Assay: isothermal titration calorimetry
Format: binding

| Compound | thermodynamic data |
| --- | --- |
| O=CO [formate] | isothermal titration calorimetry (ITC) to measure the thermodynamic data |
| NC(=O)C1=CN([C@@H]2O[C@H](COP(=O)(O)OP(=O)(O)OC[C@H]3O[C@@H](n4cnc5c(N)ncnc54)[C@H](O)[C@@H]3O)[C@@H](O)[C@H]2O)C=CC1 [NADH] | evaluating the interaction of BmfaldDH with formate and NADH |
